Measured values from US20180305408A1, “COMPOUNDS FOR INDUCING TISSUE FORMATION AND USES THEREOF” (HISTIDE AG, priority 2015, published 2018).
No end group written: not given here.

Columns and labels:
hMSCs = test: Loss of stemness: STRO-1 immunostaining of hMSCs cultured with compounds in solution; type: cell-based, Human; details: compound in cell culture media solution; for STRO-1 Expression (%) after 96 h: 400 ng/mL added every 24 h; for STRO-1 Expression (%) after 48 h: 400 ng/mL
From the text: The following starting materials and reagents were used: • Apatite ceramics (also called apatite or ceramic in the present invention) were synthetized as described in Mater Res. 2004; 7(4): 625-630. • Titanium was obtained from Goodfellow®. • Hydrogel (poly(acrylamide-co-acrylic acid) gel) was synthetized as described in Langmuir 2011; 27(22):13635-42. • PEEK was obtained from Goodfellow®. • PET (Poly(ethylene terephthtalate) was obtained from Goodfellow@. • Type-I collagen sponge was obtained from Sigma®. • Hexane was obtained from Sigma®. • 3-succinimidyl-3-maleimidopropionate (SMP) was obtained from Sigma®. • DMF was obtained from Sigma®. • PBS 1× was obtained from Gibco®. • 3-(ethoxydimethylsilyl)propylamine was obtained from Sigma®. • Ammonium persulfate was obtained from Biorad®. • N,N,N′,N′-tetramethylethylenediamine was obtained from Aldrich®. • Acrylamid was obtained from Merck®. • Acrylic acid was obtained from Merck®. • N,N-methylene-bis-acrylamide was obtained from Merck®. • NaOH was obtained from Aldrich®. • N,N,N′,N′-tetramethylethylenediamine was obtained from Aldrich®. • Dimethylaminopropyl-3-ethylcarbodiimide hydrochloride was obtained from Aldrich®. • N-hydroxysuccinimide was obtained from Aldrich®. • 2-(N-morpholino)-ethane sulfonic acid was obtained from Aldrich®. • MilliQ water: is water characterised in terms of resistivity (typically 18.2 MΩ·cm at 25° C.). • Low glucose Dulbecco's Modified Eagle Medium (DMEM) was obtained from Invitrogen® • Minimum Essential Medium Eagle without ascorbic acid (αMEM) was obtained from Invitrogen®. • All of the cell culture experiments were carried out without any serum in the medium for the first 8 hours of culture. • Osteoblast progenitors or precursor osteoblasts: MC3T3-E1 cells were obtained from ATCC®. These cells were cultured in Alpha-MEM medium supplemented with 10% fetal calf serum (FCS) and 1% penicillin/streptomycin. All cells were used at a low passage number (passage 7), were subconfluently cultured and were seeded at 10^4 cells/cm^2 for the purpose of the experiments. • Human bone marrow Mesenchymal Stem Cells (hMSCs) were obtained from Lonza®. These cells were cultured in Alpha-MEM supplemented with 10% (v/v) FBS and 1% penicillin/streptomycin and incubated in a humidified atmosphere containing 5% (v/v) CO2 at 37° C. All cells were used at a low passage number (passage 2 to 4), were subconfluently cultured and were seeded at 10^4 cells/cm^2 for the purpose of the experiments. • Human adipose Mesenchymal Stem Cells (haMSCs) were obtained from Lonza®. These cells were cultured in Alpha-MEM supplemented with 10% (v/v) FBS and 1% penicillin/streptomycin and incubated in a humidified atmosphere containing 5% (v/v) CO2 at 37° C. All cells were used at a low passage number (passage 3 to 4), were subconfluently cultured and were seeded at 10^4 cells/cm^2 for the purpose of the experiments. • Mouse Hair Follicle Stem Cells were isolated and cultured as described in Methods Mol Biol. 2010; 585:401-20. • Neuron cells are Neuronal Schwann Cells obtained from ATCC®. These cells were cultured in Dulbecco's Modified Eagle's Medium supplemented with 10% (v/v) FBS and 1% penicillin/streptomycin and incubated in a humidified atmosphere containing 5% (v/v) CO2 at 37° C. All cells were used at a low passage number (passage 6-8), were subconfluently cultured and were seeded at 10^4 cells/cm^2 for the purpose of the experiments. • Human umbilical-vein endothelial cells (HUVECs) were purchased from Promocell®. HUVECs were isolated and grown on gelatin coated culture flasks in a complete HUVEC culture medium (IMDM (Invitrogen, France) supplemented with 20% (v/v) fetal bovine serum (FBS) (PAA, France) and 0.4% (v/v) EC growth supplement/heparin kit (Promocell, France)). Cells were subcultured by using trypsin/EDTA (Invitrogen, France) and maintained in a humidified atmosphere containing 5% CO2 at 37° C. These cells were used at a passage number 3 to 5 for the purpose of the experiments. […]

[1] = system: Human Hematopoietic Stem Cells; test: Differentiation of human hematopoietic stem cells: loss of stemness marker CD-34+ (immunostaining); type: cell-based; details: compound in cell media solution, 400 ng/mL, 48 hours

Substance	STRO-1 Expression (%) after 96 h (hMSCs) [%]	STRO-1 Expression (%) after 48 h (hMSCs) [%]	CD34+ Expression (%) [1] [%]
APTGGSATSMLYYDKGVVTYLRKHRGGVVKDKGVVTY (also: cyclic, ring type not given here) [SEQ ID NO: 717]	17	28	
APTLLNAISMLYFNDKQQIILKKYRLLVVRNDKQQII (also: cyclic, ring type not given here) [SEQ ID NO: 716]	20	30	
APVAAKPLSMLYVDKGVVTYDHHKDAAVEEDEYDKVV (also: cyclic, ring type not given here) [SEQ ID NO: 722]	18	31	
APVKMEPLPTVYYDDMGVPTEQLSNDMVEESGSLDDMGVPT (also: cyclic, ring type not given here) [SEQ ID NO: 746]			37
ASASPSSAPVDLKPLSMLYVIGKTPKIDHHKDMIVEESKSIGKTPKID (also: cyclic, ring type not given here) [SEQ ID NO: 734]		33	
ASASPSSVSQDLRSVKVAKVIGKTPKIKEVQVMIVKSSKIGKTPKID (also: cyclic, ring type not given here) [SEQ ID NO: 738]		31	
AVPKASSVPQKLEPLTILYYDSSNNVIEQLSNNMVKSIGKTPKID (also: cyclic, ring type not given here) [SEQ ID NO: 736]		37	
EPSSSRVRLEPLTTLYYGGGGGGGEQLSNVVEEHSKDKGVVTY (also: cyclic, ring type not given here) [SEQ ID NO: 745]			37
EPSSVSQAAEPLPIVYYRIKPHOGQHEQLSNMIVKSSKSSDDMGVPT [SEQ ID NO: 747]			38
HVTKPTSVPTKLSPISILFIDDSSNVIYKQYENMVVESSGSHIGKTPKID (also: cyclic, ring type not given here) [SEQ ID NO: 733]		23	
IPKASSAPVGQRPVQMRKIDKGVVTYKKATVSSVEESGSLDKGVVTY (also: cyclic, ring type not given here) [SEQ ID NO: 739]			35
KASSSRVKMSNITVQ1MRIKPHOGQHIGEMSVVEEHASGSHDKGVVTY (KASSSRVKMSNITVQIMRIKPHQGQHIGEMSVVEEHASGSHDKGVVTY; not fully specified (residue 23); printed as KASSSRVKMSNITVQ1MRIKPHOGQHIGEMSVVEEHASGSHDKGVVTY; also: cyclic, ring type not given here) [SEQ ID NO: 743]			42
KASSVPQEERPVQMRKIGGGGGGGKKATVMIVRSSKSSDDMGVPT (also: cyclic, ring type not given here) [SEQ ID NO: 740]			31
KIPKASSVPQELEPLPIVYYDENEKVVEQLSNDMVRSGSGSRDENEKV (also: cyclic, ring type not given here) [SEQ ID NO: 735]		26	
NDEGLESVPTGQSPISILYIRIKPHQGQHYKQYELEEHSQSESRDENEKV (also: cyclic, ring type not given here) [SEQ ID NO: 732]		27	
PTSSAPTDLRSVKMAKVEIVRKKPIFKEVQVDMVVKASGDKGVVTY (also: cyclic, ring type not given here) [SEQ ID NO: 742]			33
RVPSTSSAPVKTSNITMQIMDNGRVLLLGEMSMIVEESGSLIGKTPKID (also: cyclic, ring type not given here) [SEQ ID NO: 737]		28	
SRVAARSVKMAKVGGGGGGGKEVQVAAEEHGGGGGG (also: cyclic, ring not given here) [SEQ ID NO: 726]	21	39	

Substance	STRO-1 Expression (%) after 96 h (hMSCs) [%]	STRO-1 Expression (%) after 48 h (hMSCs) [%]	CD34+ Expression (%) [1] [%]
SRVLLRPVQMRKIDKGVVTYKKATVLLEEHDKGVVTY (also: cyclic, ring not given here) [SEQ ID NO: 729]	14	37	
TPTSSSPINTLYFDDMGVPTYGKIPSSVVDDEYDKVV (also: cyclic, ring not given here) [SEQ ID NO: 720]	14	21	
TQVAARPVQTRKIDDMGVPTKKATVAAEDHDKGVVTY (also: cyclic, ring not given here) [SEQ ID NO: 730]	21	36	
VPEAASSLSMLFFEIVRKKPIFLKVYPAATVEDKGVVTY (also: cyclic, ring not given here) [SEQ ID NO: 714]	18	28	
VPQAAEPLPMLYYDKGVVTYEQLSNAAVRSDKGVVTY (also: cyclic, ring not given here) [SEQ ID NO: 723]	20	34	
VPQQQEPLTTLYYDEYDKVVEQLSNQQVKSNDKQQII (also: cyclic, ring not given here) [SEQ ID NO: 724]	16	29	
VPQRLEPLTILYYDAANNVVEQLSNDMVKSDENEKV (also: cyclic, ring not given here) [SEQ ID NO: 731]		31	
VPTAAEPISMLYLDEYDKVVKFKYEAAAVSNDKQQII (also: cyclic, ring not given here) [SEQ ID NO: 719]	16	26	
VPTAAEPLTMLYYEIVRKKPIFEQLSNMVEHSDDMGVPT (also: cyclic, ring not given here) [SEQ ID NO: 744]			38
VPTAASAISILYLDAANNVVLKNYQAAVVEDKGVVTY (also: cyclic, ring not given here) [SEQ ID NO: 713]	23	29	
VPTDDSATSTLYYDKGVVTYLRKHRDDEHSDKGVVTY (also: cyclic, ring not given here) [SEQ ID NO: 727]	13	26	
VPTGGEPLTTLYYNDKQQIIEQLSNGGEHSDDMGVPT (also: cyclic, ring not given here) [SEQ ID NO: 728]	17	32	
VPTMMSNITTQIMRIKPHQGQHIGEMSMMQHNDEYDKVV (also: cyclic, ring not given here) [SEQ ID NO: 725]	20	35	
VPTSSSPISTLYIDKGVVTYLKYHYSSVAEDEYDKVV (also: cyclic, ring not given here) [SEQ ID NO: 718]	19	26	
VPTVVSAISTLYLRIKPHQGQHLKNYQVVVVENDKQQII (also: cyclic, ring not given here) [SEQ ID NO: 715]	24	31	
VPTVVSPISMLYIDDMGVPTYKQYEVVVVEDDMGVPT (also: cyclic, ring not given here) [SEQ ID NO: 721]	16	29	
VSQAARPVQTRKIDDMGVPTKKATVAAVKSDDMGVPT (also: cyclic, ring not given here) [SEQ ID NO: 741]			26
